Measurements from US4544659A, “Schistosomicidal acridanone hydrazones” (Hoffman-La Roche Inc., priority 1982, dated 1985).

Experiments:
Schistosoma mansoni = assay: Schistosomicidal activity in infected mice (reduction in number of worms, single peroral treatment); assay type: in vivo, Schistosoma mansoni (Liberia strain) in albino mice; conditions: po, read-out: VD50 (vermicidal dosage which brings about a 50 percent reduction in the number of worms)
Method: Albino mice weighing 15-18 g are infected subcutaneously with 60±5 cercaria of a Liberia strain of Schistosoma mansoni. Forty-six (46) days after infection, the animals are treated once perorally with the test substance. There are 5-10 animals used per substance and dosage. There are 10 untreated animals used as controls. The autopsies are carried out after 60 days. Whereupon worm pairs and individual worms in the mesenteric veins, portal vein and liver are dissected out and counted.
For the evaluation, the percentage reduction in parasites in treated animals in comparison to untreated control animals is calculated. The VD50 is determined according to the Probit method. The VD50 is that vermicidal dosage which brings about a 50 percent reduction in the number of worms.
(§1) The Table which follows contains the results obtained with representative compounds of the invention. In the Table there are given VD50 in mg/kg p.o. and the LD50 in mg/kg in the case of single oral administration to mice.

[1] = Acute toxicity, single oral administration to mice; conditions: mouse, in vivo, p.o.
From the text: as §1

Cl.Cn1c2ccccc2c(=NNc2nccs2)c2ccccc21 [10-methyl-9-acridanone (2-thiazolyl)hydrazone hydrochloride]
ED50 (Schistosoma mansoni): 9 mg/kg | LD50 [1]: > 5000 mg/kg

c1ccc2c(=NN=C3NCCS3)c3ccccc3[nH]c2c1 [9-acridanone (2-thiazolidinylidene)hydrazone]
ED50 (Schistosoma mansoni): 26 mg/kg | LD50 [1]: 1250 to 2500 mg/kg
